The source of these data is PMC7915765, “Biochemical Characterization, Specificity and Inhibition Studies of HTLV-1, HTLV-2, and HTLV-3 Proteases” (Life, 2021).

Residue numbers refer to the chain shown, from its start. Entries after “also recorded” stand apart in the source; their conditions may differ. *1 amine or outer side, *2 acyl side, *3 side chain or, on linkers, in order; H or OH if unused. Where a SMILES comes first, the peptide text is derived from it. Side-chain parts run from the residue outwards. [ ]: non-standard residue; d: D form. LeuΨ(CH2N)Pro = CC(C)C[C@@H](CN1CCC[C@H]1C(=O)[*:2])N[*:1]; X1 = CC(C)C[C@@H](CN([C@H](C(=O)[*:2])C(C)C)[*:1])N[*:3]

Test [1] deals with T1, HTLV-2 PR (Human T-cell leukemia virus 2, UniProt P03363). In words: biochemical.
Method: (§3) The reaction mixtures were prepared to contain 4.8 µL of substrate (in 0.40–0.43 mM final concentration), 0.2 µL of inhibitor, 5 µL of the enzyme, and 10 µL of a 2× incubation buffer. The substrates representing HTLV-2 and HTLV-3 MA/CA cleavage sites were used for HTLV-2 and HTLV-3 PRs, respectively. […] The inhibitors were dissolved in DMSO. Therefore, 0.2 µL of DMSO was added to the control samples.
In test [2] the target is T2, HTLV-3 PR (Human T-cell leukemia virus 3, UniProt Q4U0X6). In words: biochemical.
Method: as §3
The subject of test [3] is HTLV-1 PR. In words: Inhibition study with HIV-1 PIs, HTLV-1 PR. Type of test: biochemical, human T-cell leukemia virus type 1. Conditions: inhibitor 1 µM final. Here is the method: (§1) The IB-268 (KTKVL-r-VVQPK) and IB-269 (APQVL-r-PVMHP) reduced peptide bond (-r-)-containing inhibitors, which were synthesized by Dr. Ivo Blaha (Ferring Leciva, Prague, Czech Republic).
(§2) The reaction mixtures were prepared to contain 4.8 µL of substrate (in 0.40–0.43 mM final concentration), 0.2 µL of inhibitor, 5 µL of the enzyme, and 10 µL of a 2× incubation buffer. The substrates representing HTLV-2 and HTLV-3 MA/CA cleavage sites were used for HTLV-2 and HTLV-3 PRs, respectively. In the case of HIV-1 PIs, we applied 100 µM inhibitor stocks, while 0.5–100 µM stocks of IB-268 and IB-269 were used for screening. The inhibitors were dissolved in DMSO. Therefore, 0.2 µL of DMSO was added to the control samples.

Test [4] concerns the target T1, HTLV-2 PR. In words: Inhibition study with HIV-1 PIs, HTLV-2 PR. Format: biochemical, human T-cell leukemia virus type 2. Also on record: made in house; host or cells: E. coli BL21(DE3). To be noted: inhibitor 1 µM final; for loss of activity: substrate HTLV-2 MA/CA 0.40–0.43 mM, DMSO control = 100%, n = 2. As for the experimental part: The inhibitors were dissolved in DMSO.

Test [5] deals with T2, HTLV-3 PR. In words: Inhibition study with HIV-1 PIs, HTLV-3 PR. Format: biochemical. Also on record: made in house; host or cells: E. coli BL21(DE3), pET11a. To be noted: inhibitor 1 µM final; for loss of activity: substrate HTLV-3 MA/CA 0.40–0.43 mM, DMSO control = 100%, n = 2. As for the experimental part: as §1, §2
Test [6] concerns HTLV-1 PR. Also on record: method as in 2 sources, ref [41] = [41]; PMID 15158589; doi:10.1016/j.jviromet.2004.03.001; 41. Bagossi P. Kádas J. Miklóssy G. Boross P. Weber I.T. Tözsér J. Development of a microtiter plate fluorescent assay for inhibition studies on the HTLV-1 and HIV-1 proteinases J. Virol. Methods 2004 ||| ref [28] = [28]; PMID 15102858; doi:10.1074/jbc.M401868200; 28. Kádas J. Weber I.T. Bagossi P. Miklóssy G. Boross P. Oroszlan S. Tözsér J. Narrow substrate specificity and sensitivity toward ligand-binding site mutations of human T-cell leukemia virus type 1 p. Conditions: ref [28]; cited from earlier work.
From the text: (a) Comparison of relative activities determined in the presence of HIV-1 PIs applied in a 1-µM final concentration. For control measurements, reaction mixtures contained no inhibitor. Activity determined in the presence of DMSO was considered to be 100%. Error bars represent SD (n = 2). […] We repeated these experiments in our system for HTLV-2 and HTLV-3 PRs.

The subject of a further test is ATLL cells. Also on record: method as in PMID 16174765. Conditions: ATLL cells ex vivo; ref [54]; cited from earlier work.
Test [7] relates to NF-κB transcriptional activation. Set-up: method as in PMID 18316517. To be noted: ATLL cells; ref [55]; cited from earlier work.
The conditions of test [8]: ASPRV1; ref [51]; cited from earlier work. Here is the method:
The dependence of enzyme activity on pH was studied in a 4.5–8.0 range. […] Our results imply that the optimal pH of HTLV-1 PR is higher than it was determined previously by Ha et al. (pH 5.2–5.3). The optimal pH determined for HTLV PRs is similar to the slightly acidic pH optimum of retroviral and retroviral-like proteases, including the HIV-1 PR (pH 4.0–6.0 range), the BLV PR (pH 4.0–6.5 range), ...

Test [9] has as its system HTLV-1 PR. Conditions: ref [28], cited from earlier work; for activity of mutant (in words): HTLV-1 PR mutants, L57G with HTLV-1 CA/NC substrate (KTKVL*VVQPK); for self-processing: HTLV-1 PR, designed and characterized previously. The source says:
Table 5 Effects of protease mutations on autoproteolytic activity of HTLV PRs. | column: Self-Processing || We prepared mutant HTLV-2 and HTLV-3 PRs, which contained mutations that were introduced previously to HTLV-1 PR to study its self-processing capability. The rationale behind the former mutation design was to prepare mutant HTLV-1 PRs that contain HIV-1-like residues in the flap region (57th and 59th) or at the active site (37th and 67th). The herein studied enzymes also contained the same mutations in the corresponding positions (Figure 10). All modified residue constitutes a part of substrate binding sites (Table 4).

T1 sequence (P03363 447-571): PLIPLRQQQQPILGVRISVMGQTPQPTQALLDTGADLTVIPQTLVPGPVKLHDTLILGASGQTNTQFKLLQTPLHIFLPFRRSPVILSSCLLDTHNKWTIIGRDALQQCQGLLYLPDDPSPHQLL
T2 sequence (Q4U0X6 431-553): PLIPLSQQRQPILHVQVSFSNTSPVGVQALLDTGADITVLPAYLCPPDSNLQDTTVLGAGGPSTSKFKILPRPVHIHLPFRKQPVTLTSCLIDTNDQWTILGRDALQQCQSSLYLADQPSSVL

What is called Ki is the equilibrium dissociation constant of an inhibitor or competing ligand from its target. A high value points to a looser hold on the target. As for `CC(C)C[C@@H](CN[C@H](C(=O)N[C@H](C(=O)N[C@@H](CCC(N)=O)C(=O)N1CCC[C@H]1C(=O)N[C@@H](CCCCN)C(=O)O)C(C)C)C(C)C)NC(=O)[C@@H](NC(=O)[C@H](CCCCN)NC(=O)[C@@H](NC(=O)[C@@H](N)CCCCN)[C@@H](C)O)C(C)C` [IB-268] (H-[X1]([Val-Lys-Thr-Lys])VQPK-OH), the Ki at HTLV-2 PR [1] worked out at 37 nM; at HTLV-3 PR [2], 214 nM.

Turning to `CSCC[C@H](NC(=O)[C@@H](NC(=O)[C@@H]1CCCN1C[C@H](CC(C)C)NC(=O)[C@@H](NC(=O)[C@H](CCC(N)=O)NC(=O)[C@@H]1CCCN1C(=O)[C@H](C)N)C(C)C)C(C)C)C(=O)N[C@@H](Cc1c[nH]cn1)C(=O)N1CCC[C@H]1C(=O)O` [IB-269] (H-APQV[LeuΨ(CH2N)Pro]VMHP-OH), the inhibition constant (Ki) at HTLV-2 PR [1] amounted to 12 nM; at HTLV-3 PR [2], 14 nM.

For `CC(C)CN(C[C@@H](O)[C@H](Cc1ccccc1)NC(=O)O[C@H]1CO[C@H]2OCC[C@H]21)S(=O)(=O)c1ccc(N)cc1` [darunavir], the “inhibitory effect (in words)” value in the test on HTLV-1 PR [3], against HTLV-2 PR [4] and against HTLV-3 PR [5] was “highest inhibition” throughout. The loss of activity on HTLV-2 PR [4] and on HTLV-3 PR [5] was under 50% in each case.

Turning to `CC(C)(C)NC(=O)[C@@H]1CN(Cc2cccnc2)CCN1C[C@@H](O)C[C@@H](Cc1ccccc1)C(=O)N[C@H]1c2ccccc2C[C@H]1O` [indinavir], the “inhibitory effect (in words)” value with HTLV-1 PR [3], against HTLV-2 PR [4] and at HTLV-3 PR [5] was “highest inhibition” in each case. The “decrease of HTLV-1 PR activity” value in the test with HTLV-1 PR [3] (DMSO control = 100%, n = 2) is ~ 50%. Moreover, the “inhibition of wild-type HTLV-1 PR (in words)” value in the test on HTLV-1 PR [6] is recorded as “relatively good inhibitors”. Besides, the loss of activity at HTLV-2 PR [4] and on HTLV-3 PR [5] was under 50% in each case.

On to `CC(C)c1nc(CN(C)C(=O)N[C@H](C(=O)N[C@@H](Cc2ccccc2)C[C@H](O)[C@H](Cc2ccccc2)NC(=O)OCc2cncs2)C(C)C)cs1` [ritonavir], for which the “inhibitory effect (in words)” value in the test with HTLV-1 PR [3] is “not an effective inhibitor”; on HTLV-2 PR [4] it was “did not inhibit”; against HTLV-3 PR [5], “did not inhibit”. In addition, the anti-leukemic activity result with ATLL cells is given as “anti-leukemic activity against ATLL cells ex vivo”. In addition, the “inhibition of NF-κB transcriptional activation” value in [7] was “ritonavir-dependent inhibition of NF-κB transcriptional activation”. The loss of activity on HTLV-2 PR [4] and at HTLV-3 PR [5] was under 50% in each case.

B1: ASPRV1: human retroviral-like aspartic protease 1 (literature) (protein, UniProt Q53RT3 191-326, looked up)
Retroviral-like aspartic …: SMGKGYYLKGKIGKVPVRFLVDSGAQVSVVHPNLWEEVTDGDLDTLQPFENVVKVANGAEMKILGVWDTAVSLGKLKLKAQFLVANASAEEAIIGTDVLQDHNAILDFEHRTCTLKGKKFRLLPVGGSLEDEFDLE
B1: the pH optimum in [8] is 6.27 ± 0.02.

B2: HTLV-1 L57G (protein, UniProt P10274 450-574, looked up, variant L57G)
Protease: PVIPLDPARRPVIKAQVDTQTSHPKTIEALLDTGADMTVLPIALFSSNTPLKNTSVGGAGGQTQDHFKLTSLPVLIRLPFRTTPIVLTSCLVDTKNNWAIIGRDALQQCQGVLYLPEAKRPPVIL
modifications: Protease
For B2, in the test on HTLV-1 PR [9], the “activity of mutant (in words)” value is “inefficient enzyme; also recorded: did not hydrolyze the CA/NC cleavage site peptide”.

B3: HTLV-1 M37D (protein, UniProt P10274 450-574, looked up, variant M37D)
Protease: B2 Protease with M37D, G57L
modifications: Protease
As for B3, the self-processing entry in the test on HTLV-1 PR [9] is “no”.

B4: HTLV-1 F67Q (protein, UniProt P10274 450-574, looked up, variant F67Q)
Protease: B2 Protease with G57L, F67Q
modifications: Protease
Consider B4, for which, in the test with HTLV-1 PR [9], the “activity of mutant (in words)” value is “not tolerated” and the self-processing result was “no”.

B5: HTLV-1 A59I (protein, UniProt P10274 450-574, looked up, variant A59I)
Protease: B2 Protease with G57L, A59I
modifications: Protease
For the molecule B5, the “activity of mutant (in words)” value in the test with HTLV-1 PR [9] was “undetectable activity”.

B6: HTLV-1 wild-type: wild-type HTLV-1 PR, self-processing studied previously (protein, UniProt P10274 450-574, looked up)
Protease: B2 Protease with G57L
modifications: Protease
notes: wild-type HTLV-1 PR, self-processing studied previously
On to B6, for which, in the test with HTLV-1 PR [9], the self-processing result is given as “yes”.
